Where two headings read alike, the source gives them in different places.
Key:
hamster SUR1 = target: T1, hamster SUR1 (Cricetus cricetus, UniProt Q09427); experiment: In vitro binding affinity to rodent KATP channels: SUR1 ([3H]glibenclamide displacement, COS cell membranes)
T1 construct: expressed in transfected cells; host or cells: COS-1 cells, transient (pcDNA vector)
Procedure: 1. In Vitro Binding Affinity of the Test Compounds to Rodent KATP Channels
Competitive binding experiments were performed to characterize the affinity of the test compounds for the binding sites for sulfonylureas and KATP channel openers (KCOS) on hamster SUR1. To assess the affinity for the sulfonylurea site, membranes from COS-cells transiently expressing hamster SUR1 were incubated in the presence of [^3H]glibenclamide with increasing concentrations of test compounds. […] For each test compound four displacement curves were measured (+/−MgATP from the human and hamster isoform). Per curve 9-15 distinct concentrations were tested covering the relevant range. All measurements were repeated at least 5 times in independent experiments.
(§1) [^3H]glibenclamide (specific activity 51 Ci mmol^−1) was obtained from NEN (Dreieich, Germany). Where needed, stock solutions were prepared in dimethylsulfoxide with a final solvent concentration in the media below 1%.
(§2) SUR- or Kir6.x isoforms were used either subcloned in the pcDNA (hamster SUR1, mouse Kir6.2) or pCMV vector (rat SUR2A, SUR2B).
(§3) For transfection, the cells were incubated 4 hours in a Tris-buffered salt solution containing DNA (5-10 μg/ml) plus DEAE-dextran (1 mg/ml), 2 min in HEPES-buffered salt solution plus dimethylsulfoxide (10%) and 4 hours in DMEM-HG plus chloroquine (100 μM). Cells were then returned to DMEM-HG plus 10% FCS. […] For binding experiments, resuspended membranes (final protein concentration 5-50 μg/ml) were incubated in “Tris-buffer” (50 mM, pH 7.4) containing either [^3H]glibenclamide (final concentration 0.3 nM or 3 nM and nonspecific binding defined by 100 nM or 1 μM glibenclamide for SUR1 or SUR2Y1205S-isoforms, respectively) or [^3H]P1075 (final concentration 3 nM, nonspecific binding defined by 100 μM pinacidil) and increasing concentrations of the test compounds. The free Mg^2+ concentration were kept close to 0.7 mM. […] Incubations were carried out for 1 h at room temperature and were terminated by rapid filtration through Whatman GF/B filters.
(§4) The inhibition constant (Ki value) of the test substances was calculated from the respective IC50 value, and was stated as the negative logarithmic value thereof (pKi).

rat SUR2A = rat SUR2A (Rattus norvegicus, UniProt Q63563); experiment: In vitro binding affinity to rodent KATP channels: SUR2A ([3H]P1075 / [3H]glibenclamide displacement, COS cell membranes)
Procedure: Therefore, two strategies can be used to detect binding to the sulfonylurea site on SUR2A.
Membranes from COS-cells transiently expressing rat SUR2A were incubated in the presence of the radioligands with increasing concentrations of test compounds as described above. […] For each test compound four displacement curves were measured (displacement of [^3H]P1075 from the rat isoform of the wild type receptor and displacement of [^3H]glibenclamide from the rat isoform of SUR2AY1205S). Per curve 9-15 distinct concentrations were tested covering the relevant range. All measurements were repeated at least 5 times in independent experiments.
as §1, §2, §3, §4

[1] = hamster SUR1 in COS cell membranes, read-out: Affinity to SUR 1 (converted)
[2] = rat SUR2A in COS cell membranes

T1 sequence (Q09427 whole entry): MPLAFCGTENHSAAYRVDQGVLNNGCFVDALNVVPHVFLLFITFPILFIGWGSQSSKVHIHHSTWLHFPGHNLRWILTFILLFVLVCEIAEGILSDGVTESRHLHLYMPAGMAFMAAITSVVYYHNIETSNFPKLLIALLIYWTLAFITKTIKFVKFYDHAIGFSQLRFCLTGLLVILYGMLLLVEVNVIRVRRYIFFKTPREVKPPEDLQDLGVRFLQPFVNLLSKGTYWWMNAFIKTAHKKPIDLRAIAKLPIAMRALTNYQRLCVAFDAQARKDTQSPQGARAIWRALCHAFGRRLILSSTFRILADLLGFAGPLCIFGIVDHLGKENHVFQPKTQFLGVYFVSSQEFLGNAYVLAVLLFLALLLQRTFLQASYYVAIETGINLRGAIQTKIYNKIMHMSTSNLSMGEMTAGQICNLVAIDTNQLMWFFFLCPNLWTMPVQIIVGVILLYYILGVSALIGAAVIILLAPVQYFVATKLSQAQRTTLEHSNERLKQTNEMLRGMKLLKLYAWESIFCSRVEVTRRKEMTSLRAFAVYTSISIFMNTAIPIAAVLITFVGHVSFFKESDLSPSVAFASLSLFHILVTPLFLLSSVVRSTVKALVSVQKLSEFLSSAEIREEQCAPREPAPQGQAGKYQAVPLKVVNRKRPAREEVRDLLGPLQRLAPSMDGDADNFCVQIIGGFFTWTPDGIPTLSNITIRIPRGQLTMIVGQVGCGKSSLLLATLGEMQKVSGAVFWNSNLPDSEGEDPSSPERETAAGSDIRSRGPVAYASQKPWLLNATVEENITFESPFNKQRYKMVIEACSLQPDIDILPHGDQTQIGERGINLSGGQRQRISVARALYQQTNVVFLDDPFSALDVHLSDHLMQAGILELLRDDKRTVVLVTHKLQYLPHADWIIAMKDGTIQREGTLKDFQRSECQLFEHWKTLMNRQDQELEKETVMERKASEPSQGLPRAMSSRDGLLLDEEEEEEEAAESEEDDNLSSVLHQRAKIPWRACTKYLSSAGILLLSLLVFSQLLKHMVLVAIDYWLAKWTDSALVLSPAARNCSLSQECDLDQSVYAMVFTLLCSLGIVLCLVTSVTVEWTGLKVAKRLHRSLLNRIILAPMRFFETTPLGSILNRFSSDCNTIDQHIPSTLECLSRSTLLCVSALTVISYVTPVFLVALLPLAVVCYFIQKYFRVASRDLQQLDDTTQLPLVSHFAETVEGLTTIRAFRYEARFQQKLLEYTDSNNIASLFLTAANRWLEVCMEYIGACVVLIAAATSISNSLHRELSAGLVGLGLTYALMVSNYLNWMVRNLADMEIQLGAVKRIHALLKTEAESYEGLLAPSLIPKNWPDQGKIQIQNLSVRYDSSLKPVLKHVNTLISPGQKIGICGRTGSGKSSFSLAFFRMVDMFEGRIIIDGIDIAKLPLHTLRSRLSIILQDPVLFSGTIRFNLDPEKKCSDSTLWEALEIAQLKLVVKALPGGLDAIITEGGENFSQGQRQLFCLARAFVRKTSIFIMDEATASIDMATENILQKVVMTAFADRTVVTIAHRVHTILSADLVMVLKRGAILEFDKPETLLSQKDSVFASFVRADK
Sequence of rat SUR2A (Q63563 whole entry): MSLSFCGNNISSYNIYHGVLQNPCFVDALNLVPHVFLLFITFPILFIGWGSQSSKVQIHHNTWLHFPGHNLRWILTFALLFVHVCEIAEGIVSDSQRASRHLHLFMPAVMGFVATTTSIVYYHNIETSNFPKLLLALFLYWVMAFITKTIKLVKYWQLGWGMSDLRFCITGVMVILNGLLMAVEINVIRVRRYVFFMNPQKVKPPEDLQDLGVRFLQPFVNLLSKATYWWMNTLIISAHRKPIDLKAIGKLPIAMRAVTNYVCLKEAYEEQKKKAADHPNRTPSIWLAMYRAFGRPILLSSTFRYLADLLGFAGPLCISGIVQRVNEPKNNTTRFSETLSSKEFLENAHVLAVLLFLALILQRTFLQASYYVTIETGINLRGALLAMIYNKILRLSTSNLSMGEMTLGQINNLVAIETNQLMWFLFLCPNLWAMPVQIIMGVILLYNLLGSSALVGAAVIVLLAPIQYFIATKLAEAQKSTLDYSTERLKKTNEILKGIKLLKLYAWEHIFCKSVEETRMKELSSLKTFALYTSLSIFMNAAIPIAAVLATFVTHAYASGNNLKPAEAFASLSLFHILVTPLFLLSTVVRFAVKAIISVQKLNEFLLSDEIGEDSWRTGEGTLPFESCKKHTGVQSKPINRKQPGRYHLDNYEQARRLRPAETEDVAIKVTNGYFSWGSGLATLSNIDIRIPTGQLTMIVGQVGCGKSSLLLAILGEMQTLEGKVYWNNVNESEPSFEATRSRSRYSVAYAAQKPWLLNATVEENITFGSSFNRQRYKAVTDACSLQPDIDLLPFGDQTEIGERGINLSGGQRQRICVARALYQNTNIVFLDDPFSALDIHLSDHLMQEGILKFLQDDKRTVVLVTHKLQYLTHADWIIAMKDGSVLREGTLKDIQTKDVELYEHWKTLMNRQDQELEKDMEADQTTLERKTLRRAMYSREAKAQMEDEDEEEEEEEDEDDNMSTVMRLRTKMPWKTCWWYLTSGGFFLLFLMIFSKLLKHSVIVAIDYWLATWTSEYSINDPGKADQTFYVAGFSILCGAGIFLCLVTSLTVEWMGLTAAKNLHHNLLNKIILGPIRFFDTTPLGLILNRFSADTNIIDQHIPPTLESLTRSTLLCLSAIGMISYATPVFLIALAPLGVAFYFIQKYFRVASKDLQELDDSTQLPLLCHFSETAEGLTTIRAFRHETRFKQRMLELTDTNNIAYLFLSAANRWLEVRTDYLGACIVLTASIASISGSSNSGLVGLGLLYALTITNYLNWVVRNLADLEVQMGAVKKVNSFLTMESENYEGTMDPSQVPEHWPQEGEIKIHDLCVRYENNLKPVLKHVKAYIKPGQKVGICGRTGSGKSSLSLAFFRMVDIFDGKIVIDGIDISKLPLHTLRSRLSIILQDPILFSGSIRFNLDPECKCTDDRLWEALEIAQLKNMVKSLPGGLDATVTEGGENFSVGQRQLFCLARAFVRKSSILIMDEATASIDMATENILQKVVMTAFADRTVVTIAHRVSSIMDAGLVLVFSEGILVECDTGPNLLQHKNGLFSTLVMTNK

For CCCCCCC(C)(C)c1cc(OC)c(C2C=C(CO)[C@H]3C[C@@H]2C3(C)C)c(OC)c1 (stereo in doubt) [HU308, {4-[4-(1,1-Dimethyl-heptyl)-2,6-dimethoxy-phenyl]-6,6-dimethyl-bicyclo[3.1.1]hept-2-en-2-yl}-methanol, reference compound], the Ki (hamster SUR1) was 398 nM.
In the case of O=S(=O)(N=C(NCCF)N1CC(c2ccccc2)C(c2ccc(Cl)cc2)=N1)c1ccc(Cl)cc1 (stereo not shown) [drawing 45, 4-Chloro-N-[[3-(4-chloro-phenyl)-4-phenyl-4,5-dihydro-pyrazol-1-yl]-(2-fluoro-ethylamino)-methylene]-benzenesulfonamide], the pKi (rat SUR2A) is reported as 4.6 and the Ki (hamster SUR1; [1]) is reported as 25100 nM.
O=C(NN1CCCCC1)c1cn(-c2ccc(C(F)(F)F)cc2)c(-c2ccc(Cl)cc2Cl)n1 [2-(2,4-Dichloro-phenyl)-1-(4-trifluoromethyl-phenyl)-1H-imidazole-4-carboxylic acid piperidin-1-ylamide] was tested, and the pKi (rat SUR2A) was 5.3 and the Ki (hamster SUR1; [1]) was 2510 nM.
Compound NC(=O)C1CCN(C(=NS(=O)(=O)c2ccc(Cl)cc2)N2CC(c3ccccc3)C(c3ccc(Cl)cc3)=N2)CC1 (stereo not shown) [1-{(4-Chloro-benzene-sulfonylimino)-[3-(4-chloro-phenyl)-4-phenyl-4,5-dihydro-pyrazol-1-yl]-methyl}-piperidine-4-carboxylic acid amide] has a pKi (rat SUR2A) of 5.2 and a Ki (hamster SUR1; [1]) of 3160 nM.
With CN1CCCC1CN/C(=N\S(=O)(=O)c1ccc(Cl)cc1)N1CC(c2ccccc2)C(c2ccc(Cl)cc2)=N1 (stereo not shown) [4-Chloro-N-{[3-(4-chloro-phenyl)-4-phenyl-4,5-dihydro-pyrazol-1-yl]-[(1-methyl-pyrrolidin-2-ylmethyl)-amino]-methylene}-benzenesulfonamide] the pKi (rat SUR2A) was 5.1.
Compound CON/C(=N\S(=O)(=O)c1ccc(Cl)cc1)N1C[C@H](c2cccc(F)c2)C(c2ccc(Cl)cc2)=N1 [4-Chloro-N-{[3-(4-chloro-phenyl)-4-(3-fluoro-phenyl)-4,5-dihydro-pyrazol-1-yl]-methoxyamino-methylene}-benzenesulfonamide] has a pKi (rat SUR2A) of 6.1 and a Ki (hamster SUR1; [1]) of 2510 nM.
Work on O=C(NN1CCCCC1)c1nc(-c2ccc(Cl)cc2Cl)n(-c2ccc(Br)cc2)c1Cl [1-(4-Bromo-phenyl)-5-chloro-2-(2,4-dichloro-phenyl)-1H-imidazole-4-carboxylic acid piperidin-1-ylamide] yielded a pKi (rat SUR2A) of 5.5 and a Ki (hamster SUR1; [1]) of 3980 nM.
Compound Cc1ccc(Cn2nc(C(=O)N[C@@H]3C(C)(C)[C@@H]4CC[C@@]3(C)C4)cc2-c2ccc(Cl)c(C)c2)cc1 [SR 144528, reference compound] has a Ki (hamster SUR1; [1]) of 126 nM.
Compound O=S(=O)(N=C(NCC1CC1)N1CC(c2ccccc2)C(c2ccc(Cl)cc2)=N1)N1CCOCC1 (stereo not shown) has a pKi (rat SUR2A) of 5.7 and a Ki (hamster SUR1; [1]) of 1000 nM.
For CCCCCOc1c(OC)ccc2cc(C(=O)NCc3ccc4c(c3)OCO4)c(=O)[nH]c12 [JTE-907, 7-Methoxy-2-oxo-8-pentyloxy-1,2-di-hydro-quinoline-3-carboxylic acid (benzo[1,3]dioxol-5-ylmethyl)-amide, reference compound], the Ki (hamster SUR1; [1]) was 794 nM.
O=C(NS(=O)(=O)c1ccc(Cl)cc1)N1CC(c2ccccc2)C(c2ccc(Cl)cc2)=N1 (stereo not shown) [4-Chloro-N-[3-(4-chloro-phenyl)-4-phenyl-4,5-dihydro-pyrazole-1-carbonyl]-benzenesulfonamide] gave a pKi (rat SUR2A) of 4.8 and a Ki (hamster SUR1; [1]) of 3160 nM.
Work on CCCCCCC(C)(C)c1ccc([C@@H]2C[C@H](O)CC[C@@H]2CCCO)c(O)c1 (stereo in doubt) [CP55940-entantiomer, 5-(1,1-Dimethyl-heptyl)-2-[5-hydroxy-2-(3-hydroxy-propyl)-cyclohexyl]-phenol, reference compound] yielded a Ki (hamster SUR1; [1]) of 5010 nM.
O=S(=O)(N=C(NCCCCN1CCCC1)N1CC(c2ccccc2)C(c2ccc(Cl)cc2)=N1)c1ccc(Cl)cc1 (stereo not shown) [4-Chloro-N-[[3-(4-chloro-phenyl)-4-phenyl-4,5-dihydro-pyrazol-1-yl]-(4-pyrrolidin-1-yl-butylamino)-methylene]-benzenesulfonamide] gave a pKi (rat SUR2A) of 5.4 and a Ki (hamster SUR1; [1]) of 50100 nM.
CN(C)S(=O)(=O)N=C(NCCF)N1CC(c2ccccc2)C(c2ccc(Cl)cc2)=N1 (stereo not shown) [N,N-Dimethylamino-1-sulfonic acid [3-(4-chloro-phenyl)-4-phenyl-4,5-dihydro-pyrazol-1-yl]-(2-fluoro-ethylamino)-methyleneamide] gave a pKi (rat SUR2A) of 4.0 and a Ki (hamster SUR1; [1]) of 50100 nM.
For CNC(=NS(=O)(=O)c1ccc(C(F)(F)F)cc1)N1CC(c2ccccc2)C(c2ccc(Cl)cc2)=N1 (stereo not shown) [N-{[3-(4-Chloro-phenyl)-4-phenyl-4,5-dihydro-pyrazol-1-yl]-methylamino-methylene}-4-trifluoromethyl-benzene-sulfonamide], the pKi (rat SUR2A) was 4.2 and the Ki (hamster SUR1; [1]) was 501 nM.
With O=S(=O)(N=C(NCCF)N1CC(c2ccccc2)C(c2ccc(Cl)cc2)=N1)c1ccc(Cl)cc1 (stereo not shown) [drawing 46] the pKi (rat SUR2A) was 5.0 and the “Affinity to SUR 1” value (hamster SUR1; hamster SUR1 in COS cell membranes) was 4.6.
With N#Cc1cc(-c2ccc(Br)cc2)n(-c2ccc(Cl)cc2Cl)n1 [5-(4-Bromo-phenyl)-1-(2,4-dichloro-phenyl)-1H-pyrazole-3-carbonitrile] the pKi (rat SUR2A) was 5.4 and the Ki (hamster SUR1; [1]) was 100000 nM.
With CS(=O)(=O)C(=C1CN(C(c2ccc(Cl)cc2)c2ccc(Cl)cc2)C1)c1cc(F)cc(F)c1 [1-[Bis-(4-chloro-phenyl)-methyl]-3-[(3,5-difluoro-phenyl)-methanesulfonyl-methylene]-azetidine, reference compound] the pKi (rat SUR2A) was 5.1 and the Ki (hamster SUR1; [1]) was 5010 nM.
Work on Cn1c(C(=O)NC2CCCCC2)nc(-c2ccc(Cl)cc2Cl)c1-c1ccc(Cl)cc1 yielded a pKi (rat SUR2A; [2]) of 4.9 and a Ki (hamster SUR1; [1]) of 100000 nM.
CS(=O)(=O)c1c(C(=O)NN2CCCCC2)nc(-c2ccc(Cl)cc2Cl)n1-c1ccc(Cl)cc1 [1-(4-Chloro-phenyl)-2-(2,4-dichloro-phenyl)-5-methanesulfonyl-1H-imidazole-4-carboxylic acid piperidin-1-ylamide] showed a pKi (rat SUR2A) of 5.0 and a Ki (hamster SUR1; [1]) of 100000 nM.
CCCCCNC(=O)c1nc(-c2ccc(Cl)cc2Cl)n(-c2ccc(Br)cc2)c1CC [1-(4-Bromo-phenyl)-2-(2,4-dichloro-phenyl)-5-ethyl-1H-imidazole-4-carboxylic acid pentylamide] gave a pKi (rat SUR2A; [2]) of 5.6 and a Ki (hamster SUR1; [1]) of 794 nM.
Work on O=C(NN1CCCCC1)C1=NN(c2ccc(Cl)cc2)C(c2ccccc2)C1 (stereo not shown) [1-(4-Chloro-phenyl)-5-phenyl-4,5-dihydro-1H-pyrazole-3-carboxylic acid piperidin-1-ylamide] yielded a pKi (rat SUR2A) of 5.1 and a Ki (hamster SUR1; [1]) of 100000 nM.
In the case of Cc1c(C(=O)NC2CCC(O)CC2)nc(-c2ccc(Cl)cc2Cl)n1-c1ccc(Cl)cc1 (stereo not shown) [1-(4-Chloro-phenyl)-2-(2,4-dichloro-phenyl)-5-methyl-1H-imidazole-4-carboxylic acid (4-hydroxy-cyclo-hexyl)-amide], the pKi (rat SUR2A) is reported as 5.0 and the Ki (hamster SUR1; [1]) is reported as 100000 nM.
For CCCCC(C)(O)c1nc(-c2ccc(Cl)cc2Cl)n(-c2ccc(Cl)cc2)c1C (stereo not shown) [2-[1-(4-Chloro-phenyl)-2-(2,4-dichloro-phenyl)-5-methyl-1H-imidazol-4-yl]-hexan-2-ol], the pKi (rat SUR2A) was 5.3 and the Ki (hamster SUR1; [1]) was 1580 nM.
In the case of CCCCCc1nc(-c2ccc(Cl)cc2Cl)n(-c2ccc(Cl)cc2)c1C [1-(4-Chloro-phenyl)-2-(2,4-dichloro-phenyl)-5-methyl-4-pentyl-1H-imidazole], the pKi (rat SUR2A; [2]) is reported as 5.3 and the Ki (hamster SUR1; [1]) is reported as 1580 nM.
CN/C(=N\S(=O)(=O)c1ccc(Cl)cc1)N1C[C@@H](c2ccccc2)C(c2ccc(Cl)cc2)=N1 [4-Chloro-N-{[3-(4-chloro-phenyl)-4-phenyl-4,5-dihydro-pyrazol-1-yl]-methylamino-methylene}-benzenesulfonamide] gave a Ki (hamster SUR1; [1]) of 1000 nM.
In the case of Cc1c(NC(=O)c2ccccc2)nc(-c2ccc(Cl)cc2Cl)n1-c1ccc(Cl)cc1 [N-[1-(4-Chloro-phenyl)-2-(2,4-dichloro-phenyl)-5-methyl-1H-imidazol-4-yl]-benzamide], the Ki (hamster SUR1; [1]) is reported as 2000 nM.
Compound CNC(=NS(=O)(=O)N1CCCCC1)N1C[C@H](c2ccccc2)C(c2ccc(Cl)cc2)=N1 [Piperidine-1-sulfonic acid [3-(4-chloro-phenyl)-4-phenyl-4,5-dihydro-pyrazol-1-yl]-methylamino-methyleneamide] has a Ki (hamster SUR1; [1]) of 1580 nM.
Work on CCCCCCC(C)(C)c1cc(O)c2c(c1)OC(C)(C)[C@@H]1CC=C(CO)CC21 (stereo partly shown) [HU-210, 3-(1,1-Dimethyl-heptyl)-9-hydroxymethyl-6,6-dimethyl-6a,7,10,10a-tetra hydro-6H-enzo[c]chromen-1-ol, reference compound] yielded a Ki (hamster SUR1; [1]) of 794 nM.
